In patent publication US20250098720A1, “SWEETENER COMPOSITIONS” (Firmenich SA, priority 2022, published 2025):

Columns and labels:
[1] = Sensory experiment, trained panel, sweet base (water solution containing sucrose at 4%); assay type: in vivo, human; settings: 10 ppm compound in 4% sucrose base; twenty trained panelists
Method: (§1) Methodology: compounds 101 and 108 were evaluated as sweet modifiers in a sweet (water solution containing sucrose at 4%) or a sweet-sour base (mixture of inverted sugar and citric acid at 7% and 0.15%) at 10 ppm. Twenty trained panelists were asked to compare the intensity difference between reference and compound 101 or compound 108. The taste properties (such as sweet, sour) were evaluated on a scale of −5 to 5 (−5 denoted strong masking effect and 5 denoted strong enhancing effect, 0 being the intensity of reference.

[2] = Sensory experiment, trained panel, sweet-sour base (inverted sugar 7% and citric acid 0.15%); assay type: in vivo, human; settings: 10 ppm compound in sweet-sour base of inverted sugar 7% and citric acid 0.15%
Method: as §1

[3] = pH value of the sweet-sour base with compound; assay type: physicochemical; settings: 10 ppm compound in sweet-sour base of inverted sugar and citric acid

pH value of the base [3]	Compound	sweet intensity versus reference (scale -5 to 5) [1]	sour intensity versus reference (scale -5 to 5) [2]	sweet intensity versus reference (scale -5 to 5) [2]
–	O=C1CC(c2ccc(O)cc2)c2c(cc(O)c(C(=O)CCc3ccc(O)cc3)c2O)O1 (centres unmarked) [compound 108]	can increase sweet intensity	–	–
without changing the pH value	COc1cc(O)c(C(=O)CCc2ccc(O)cc2)c(O)c1C [compound 101]	can increase sweet intensity	significantly increase	significantly increase
